Several values for one entry are separate records, joined by “and”; a condition that tells them apart may be missing. Equal values may be shown once. Results filed as inconclusive are left out.
Tested on: Lewis lung carcinoma i.m., BDF1 mice, T/C %
Test: NCI In Vivo Anticancer Drug Screen. Data for tumor model Lewis Lung Carcinoma (intramuscular) in B6D2F1 (BDF1) mice
Settings: endpoint: mean tumor weight, higher = larger tumour
Method in brief: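 Mice carrying transplantable tumours received test compound. Survival or tumour size was recorded and expressed as the treated-group value (T) divided by the vehicle-treated control-group value (C).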

CCc1nc(N)nc(N)c1-c1ccc(Cl)cc1
T/C (dose: 2.0 mg/kg/injection, schedule: Q06HX008 (ip), vehicle: Klucel (hydroxypropylcellulose) (HPC)): 104 % of control
T/C (dose: 4.0 mg/kg/injection, schedule: Q01DX009 (ip), vehicle: Klucel (hydroxypropylcellulose) (HPC)): 87 % of control
T/C (dose: 4.0 mg/kg/injection, schedule: Q01DX009 (oral), vehicle: Klucel (hydroxypropylcellulose) (HPC)): 37 % of control
T/C (dose: 4.0 mg/kg/injection, schedule: Q01DX009 (sc), vehicle: Klucel (hydroxypropylcellulose) (HPC)): 95 % of control
T/C (dose: 4.0 mg/kg/injection, schedule: Q06HX004 (ip), vehicle: Klucel (hydroxypropylcellulose) (HPC)): 82 % of control
T/C (dose: 4.0 mg/kg/injection, schedule: Q06HX012 (ip), vehicle: Klucel (hydroxypropylcellulose) (HPC)): 71 % of control
T/C (dose: 8.0 mg/kg/injection, schedule: Q01DX001 (sc), vehicle: Klucel (hydroxypropylcellulose) (HPC)): 66 % of control
T/C (dose: 8.0 mg/kg/injection, schedule: Q01DX009 (ip), vehicle: Klucel (hydroxypropylcellulose) (HPC)): 67 % of control
T/C (dose: 8.0 mg/kg/injection, schedule: Q01DX009 (oral), vehicle: Klucel (hydroxypropylcellulose) (HPC)): 31 % of control
T/C (dose: 8.0 mg/kg/injection, schedule: Q01DX009 (sc), vehicle: Klucel (hydroxypropylcellulose) (HPC)): 76 % of control
T/C (dose: 8.0 mg/kg/injection, schedule: Q04DX003 (ip), vehicle: Klucel (hydroxypropylcellulose) (HPC)): 92 % of control
T/C (dose: 8.0 mg/kg/injection, schedule: Q06HX004 (ip), vehicle: Klucel (hydroxypropylcellulose) (HPC)): 75 % of control
T/C (dose: 8.0 mg/kg/injection, schedule: Q06HX008 (ip), vehicle: Klucel (hydroxypropylcellulose) (HPC)): 65 % of control and 68 % of control
T/C (dose: 8.0 mg/kg/injection, schedule: Q06HX012 (ip), vehicle: Klucel (hydroxypropylcellulose) (HPC)): 57 % of control
T/C (dose: 8.0 mg/kg/injection, schedule: Q08DX002 (ip), vehicle: Klucel (hydroxypropylcellulose) (HPC)): 85 % of control
T/C (dose: 12.5 mg/kg/injection, schedule: Q01DX011 (ip), vehicle: steriod suspending solution): 65 % of control
T/C (dose: 16.0 mg/kg/injection, schedule: Q01DX001 (ip), vehicle: Klucel (hydroxypropylcellulose) (HPC)): 71 % of control
T/C (dose: 16.0 mg/kg/injection, schedule: Q01DX001 (oral), vehicle: Klucel (hydroxypropylcellulose) (HPC)): 84 % of control
T/C (dose: 16.0 mg/kg/injection, schedule: Q01DX001 (sc), vehicle: Klucel (hydroxypropylcellulose) (HPC)): 75 % of control and 80 % of control
T/C (dose: 16.0 mg/kg/injection, schedule: Q01DX009 (ip), vehicle: Klucel (hydroxypropylcellulose) (HPC)): 83 % of control and 98 % of control
T/C (dose: 16.0 mg/kg/injection, schedule: Q01DX009 (oral), vehicle: Klucel (hydroxypropylcellulose) (HPC)): 38 % of control
T/C (dose: 16.0 mg/kg/injection, schedule: Q01DX009 (sc), vehicle: Klucel (hydroxypropylcellulose) (HPC)): 80 % of control
T/C (dose: 16.0 mg/kg/injection, schedule: Q04DX003 (ip), vehicle: Klucel (hydroxypropylcellulose) (HPC)): 73 % of control and 78 % of control
T/C (dose: 16.0 mg/kg/injection, schedule: Q06HX004 (ip), vehicle: Klucel (hydroxypropylcellulose) (HPC)): 84 % of control
T/C (dose: 16.0 mg/kg/injection, schedule: Q06HX008 (ip), vehicle: Klucel (hydroxypropylcellulose) (HPC)): 58 % of control and 73 % of control
T/C (dose: 16.0 mg/kg/injection, schedule: Q06HX012 (ip), vehicle: Klucel (hydroxypropylcellulose) (HPC)): 56 % of control
T/C (dose: 25.0 mg/kg/injection, schedule: Q01DX011 (ip), vehicle: steriod suspending solution): 57 % of control
T/C (dose: 32.0 mg/kg/injection, schedule: Q01DX001 (ip), vehicle: Klucel (hydroxypropylcellulose) (HPC)): 75 % of control
T/C (dose: 32.0 mg/kg/injection, schedule: Q01DX001 (oral), vehicle: Klucel (hydroxypropylcellulose) (HPC)): 95 % of control
T/C (dose: 32.0 mg/kg/injection, schedule: Q01DX001 (sc), vehicle: Klucel (hydroxypropylcellulose) (HPC)): 85 % of control and 94 % of control
T/C (dose: 32.0 mg/kg/injection, schedule: Q01DX009 (oral), vehicle: Klucel (hydroxypropylcellulose) (HPC)): 32 % of control
T/C (dose: 32.0 mg/kg/injection, schedule: Q01DX009 (sc), vehicle: Klucel (hydroxypropylcellulose) (HPC)): 71 % of control
T/C (dose: 32.0 mg/kg/injection, schedule: Q04DX003 (ip), vehicle: Klucel (hydroxypropylcellulose) (HPC)): 76 % of control and 94 % of control
T/C (dose: 32.0 mg/kg/injection, schedule: Q06HX008 (ip), vehicle: Klucel (hydroxypropylcellulose) (HPC)): 62 % of control
T/C (dose: 32.0 mg/kg/injection, schedule: Q08DX002 (ip), vehicle: Klucel (hydroxypropylcellulose) (HPC)): 74 % of control
T/C (dose: 50.0 mg/kg/injection, schedule: Q01DX011 (ip), vehicle: steriod suspending solution): 50 % of control
T/C (dose: 64.0 mg/kg/injection, schedule: Q01DX001 (ip), vehicle: Klucel (hydroxypropylcellulose) (HPC)): 78 % of control
T/C (dose: 64.0 mg/kg/injection, schedule: Q01DX001 (oral), vehicle: Klucel (hydroxypropylcellulose) (HPC)): 85 % of control
T/C (dose: 64.0 mg/kg/injection, schedule: Q01DX001 (sc), vehicle: Klucel (hydroxypropylcellulose) (HPC)): 78 % of control and 81 % of control

Reference: PubChem BioAssay AID272 (DTP/NCI, 2004)
